Consider 18 molecules from patent US10144742B2 (Millennium Pharmaceuticals, Inc., priority 2014, dated 2018).

One may read the IC50 as the concentration needed to halve the response being measured. By inhibition is commonly meant the relative decrease from the control value, in per cent.

One assay deals with hNAMPT protein (Homo sapiens (Human), UniProt P43490). Briefly: NAMPT enzyme assay (TR-FRET/HTRF, BodiPY ligand, anti 6His-Tb). In kind it is binding. The note with it: for IC50: NAMPT IC50 range class, read-out: IC50; for inhibition at 1 µM: compound concentration 1 μM, read-out: Percent Inhibition. The method in brief:
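TR-FRET binding assay in which His-tagged human NAMPT with anti-6His-Tb is displaced by compound from a BodiPY ligand, incubated 1 h at rt in the dark. Excitation was at 320 nm, with the 520/486 nm emission ratio read. IC50 was fitted from inhibition relative to DMSO controls.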
(In TR-FRET formats the signal depends on donor and acceptor labels being close together.)

For the next assay, the system named is PC3 cells. Description: PC3 growth inhibition (Cell-titer glo, 72 hours). In kind it is cell-based. The note with it: Homo sapiens, PC-3; compound concentration 1.667 μM; PC3 cells, 72 hours, Cell-titer glo; read-out: Percent Inhibition (PC3 growth inhibition). The method in brief:
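PC3 cells in RPMI1640 seeded overnight at 37 °C, 5% CO2, then exposed to compound diluted in AIM serum-free medium for 72 h. Viability by CellTiter-Glo luminescence vs DMSO controls; single-concentration % remaining viability (1 μM or 1.667 μM), or GI50/LD50 from curves.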

Molecules are shown by their SMILES. Some results are limits rather than exact numbers.

hNAMPT protein, sequence (P43490 whole entry): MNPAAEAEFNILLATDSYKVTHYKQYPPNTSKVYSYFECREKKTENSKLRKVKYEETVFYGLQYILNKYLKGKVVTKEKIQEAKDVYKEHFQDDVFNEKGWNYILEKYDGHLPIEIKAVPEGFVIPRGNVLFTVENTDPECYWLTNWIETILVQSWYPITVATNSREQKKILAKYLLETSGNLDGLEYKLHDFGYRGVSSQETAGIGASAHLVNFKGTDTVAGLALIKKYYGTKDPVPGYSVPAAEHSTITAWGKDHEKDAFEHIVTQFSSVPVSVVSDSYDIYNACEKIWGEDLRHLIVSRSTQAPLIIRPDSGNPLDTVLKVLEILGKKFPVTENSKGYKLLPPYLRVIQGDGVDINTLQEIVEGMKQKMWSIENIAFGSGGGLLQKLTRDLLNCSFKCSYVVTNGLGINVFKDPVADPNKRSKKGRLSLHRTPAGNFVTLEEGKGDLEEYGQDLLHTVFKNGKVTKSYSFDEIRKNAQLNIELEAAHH

In the case of `O=C(NCCCc1ncc[nH]1)c1ccc2nc(OC3COC3)c(-c3ccc(Cl)cc3)nc2c1` [Compound I-318, 3-(4-chlorophenyl)-N-[3-(1H-imidazol-2-yl)propyl]-2-(oxetan-3-yloxy)quinoxaline-6-carboxamide], at hNAMPT protein, the IC50 was under 100 nM and the inhibition at 1 µM is 97%. The inhibition at 1.667 µM in the assay on PC3 cells was 2%.

Turning to `O=C(NCCCc1ncc[nH]1)c1ccc2nc(-c3ccc(F)cc3)c(-c3cc(F)ccc3F)nc2c1` [Compound I-319, 3-(2,5-difluorophenyl)-2-(4-fluorophenyl)-N-[3-(1H-imidazol-2-yl)propyl]quinoxaline-6-carboxamide], on hNAMPT protein, the IC50 was under 100 nM and the inhibition at 1 µM turned out to be 94%. In addition, in the assay with PC3 cells, the inhibition at 1.667 µM was 3%.

As for `O=C(NCCCc1ncc[nH]1)c1ccc2nc(-c3ccc(F)cc3)c(-c3ccc4c(c3)OCCO4)nc2c1` [Compound I-320, 3-(2,3-dihydro-1,4-benzodioxin-6-yl)-2-(4-fluorophenyl)-N-[3-(1H-imidazol-2-yl)propyl]quinoxaline-6-carboxamide], on hNAMPT protein, the IC50 lay in the range of 500 to 1000 nM and the inhibition at 1 µM worked out at 63%. The inhibition at 1.667 µM with PC3 cells was 3%.

For `Cn1cc(CCOc2nc3ccc(C(=O)NCCCc4ncc[nH]4)cc3nc2-c2ccc(F)cc2)cn1` [Compound I-321, 3-(4-fluorophenyl)-N-[3-(1H-imidazol-2-yl)propyl]-2-[2-(1-methyl-1H-pyrazol-4-yl)ethoxy]quinoxaline-6-carboxamide], at hNAMPT protein, the IC50 was under 100 nM and the inhibition at 1 µM was over 99%. For the same molecule, the inhibition at 1.667 µM in the assay on PC3 cells came to 2%.

For `O=C(NCCCc1ncc[nH]1)c1ccc2nc(OCCO)c(-c3ccc(F)cc3)nc2c1` [Compound I-322, 3-(4-fluorophenyl)-2-(2-hydroxyethoxy)-N-[3-(1H-imidazol-2-yl)propyl]quinoxaline-6-carboxamide], on hNAMPT protein, the IC50 is under 100 nM and the inhibition at 1 µM came out at 96%. Further, in the assay on PC3 cells, the inhibition at 1.667 µM came to 2%.

For the molecule `O=C(NCCCc1ncc[nH]1)c1ccc2nc(OCC3CCCCO3)c(-c3ccc(F)cc3)nc2c1` (stereo not drawn) [Compound I-323, 3-(4-fluorophenyl)-N-[3-(1H-imidazol-2-yl)propyl]-2-(tetrahydro-2H-pyran-2-ylmethoxy)quinoxaline-6-carboxamide], on hNAMPT protein, the IC50 is under 100 nM and the inhibition at 1 µM came out at 99%. In addition, in the assay with PC3 cells, the inhibition at 1.667 µM worked out at 3%.

Consider `O=C(NCCCc1ncc[nH]1)c1ccc2nc(-n3ccnc3)c(-c3ccc(F)cc3)nc2c1` [Compound I-324, 3-(4-fluorophenyl)-2-(1H-imidazol-1-yl)-N-[3-(1H-imidazol-2-yl)propyl]quinoxaline-6-carboxamide], for which, at hNAMPT protein, the IC50 was in the range of 500 to 1000 nM and the inhibition at 1 µM came to 57%. The inhibition at 1.667 µM in the assay with PC3 cells was determined as 3%.

On to `O=C(NCCCc1ncc[nH]1)c1ccc2nc(-c3ccc(F)cc3)c(-c3cncs3)nc2c1` [Compound I-325, 2-(4-fluorophenyl)-N-[3-(1H-imidazol-2-yl)propyl]-3-(1,3-thiazol-5-yl)quinoxaline-6-carboxamide], for which, at hNAMPT protein, the IC50 is under 100 nM and the inhibition at 1 µM was over 99%. For the same molecule, the inhibition at 1.667 µM in the assay with PC3 cells was 4%.

For the molecule `O=C(NCCCc1ncc[nH]1)c1ccc2nc(OCc3ccsc3)c(-c3ccc(F)cc3)nc2c1` [Compound I-326, 3-(4-fluorophenyl)-N-[3-(1H-imidazol-2-yl)propyl]-2-(3-thienylmethoxy)quinoxaline-6-carboxamide], on hNAMPT protein, the half-inhibitory concentration (IC50) was under 100 nM and the inhibition at 1 µM came out at 92%. In addition, the inhibition at 1.667 µM in the assay with PC3 cells was found to be 3%.

On to `CN1CCC(COc2nc3ccc(C(=O)NCCCc4ncc[nH]4)cc3nc2-c2ccc(F)cc2)CC1` [Compound I-327, 3-(4-fluorophenyl)-N-[3-(1H-imidazol-2-yl)propyl]-2-[(1-methylpiperidin-4-yl)methoxy]quinoxaline-6-carboxamide], for which, at hNAMPT protein, the IC50 is under 100 nM and the inhibition at 1 µM was over 99%. Moreover, the inhibition at 1.667 µM with PC3 cells amounted to 2%.

Turning to `O=C(NCCCc1ncc[nH]1)c1ccc2nc(-c3ccc(F)cc3)c(-c3cccc(C(F)(F)F)c3)nc2c1` [Compound I-328, 2-(4-fluorophenyl)-N-[3-(1H-imidazol-2-yl)propyl]-3-[3-(trifluoromethyl)phenyl]quinoxaline-6-carboxamide], on hNAMPT protein, the IC50 lay in the range of 100 to 500 nM and the inhibition at 1 µM turned out to be 84%. Besides, in the assay on PC3 cells, the inhibition at 1.667 µM worked out at 3%.

`O=C(NCCCc1ncc[nH]1)c1ccc2nc(OCC3CCC3)c(-c3ccc(F)cc3)nc2c1` [Compound I-329, 2-(cyclobutylmethoxy)-3-(4-fluorophenyl)-N-[3-(1H-imidazol-2-yl)propyl]quinoxaline-6-carboxamide]: at hNAMPT protein, the IC50 is under 100 nM and the inhibition at 1 µM amounted to 95%. Further, in the assay on PC3 cells, the inhibition at 1.667 µM was 3%.

As to `O=C(NCCCc1ncc[nH]1)c1ccc2nc(-n3nccn3)c(-c3ccc(F)cc3)nc2c1` [Compound I-330, N-(3-(1H-imidazol-2-yl)propyl)-3-(4-fluorophenyl)-2-(2H-1,2,3-triazol-2-yl)quinoxaline-6-carboxamide], on hNAMPT protein, the IC50 is 100 to 500 nM and the inhibition at 1 µM came to 79%. The inhibition at 1.667 µM with PC3 cells was determined as 3%.

Take `CNC1CC(Oc2nc3ccc(C(=O)NCCCc4ncc[nH]4)cc3nc2-c2ccc(F)cc2)C1` (stereo not drawn) [Compound I-331, 3-(4-fluorophenyl)-N-[3-(1H-imidazol-2-yl)propyl]-2-[3-(methylamino)cyclobutoxy]quinoxaline-6-carboxamide]: on hNAMPT protein, the IC50 was under 100 nM and the inhibition at 1 µM is over 99%. The inhibition at 1.667 µM in the assay with PC3 cells turned out to be 2%.

`Cn1cc(COc2nc3ccc(C(=O)NCCCc4ncc[nH]4)cc3nc2-c2ccc(F)cc2)cn1` [Compound I-332, 3-(4-fluorophenyl)-N-[3-(1H-imidazol-2-yl)propyl]-2-[(1-methyl-1H-pyrazol-4-yl)methoxy]quinoxaline-6-carboxamide]: on hNAMPT protein, the IC50 is under 100 nM and the inhibition at 1 µM is over 99%. In addition, in the assay with PC3 cells, the inhibition at 1.667 µM came out at 34%.

On to `COc1cc(-c2nc3cc(C(=O)NCc4ccc5nccn5c4)ccc3nc2-c2ccc(F)cc2)c(F)cn1` [Compound I-333, 3-(5-fluoro-2-methoxypyridin-4-yl)-2-(4-fluorophenyl)-N-(imidazo[1,2-a]pyridin-6-ylmethyl)quinoxaline-6-carboxamide], for which, on hNAMPT protein, the IC50 was in the range of 100 to 500 nM and the inhibition at 1 µM is 63%. Moreover, the inhibition at 1.667 µM in the assay on PC3 cells is 0%.

For `CC(C)Oc1nc2ccc(C(=O)NCCCc3ncc[nH]3)cc2nc1-c1ccc(Cl)s1` [Compound I-334, 3-(5-chloro-2-thienyl)-N-[3-(1H-imidazol-2-yl)propyl]-2-isopropoxyquinoxaline-6-carboxamide], on hNAMPT protein, the IC50 was under 100 nM and the inhibition at 1 µM was over 99%. For the same molecule, in the assay with PC3 cells, the inhibition at 1.667 µM was 1%.

For `Cc1cc(C)cc(-c2nc3cc(C(=O)NCCCc4ncc[nH]4)ccc3nc2-c2ccc(F)cc2)c1` [Compound I-335, 3-(3,5-dimethylphenyl)-2-(4-fluorophenyl)-N-[3-(1H-imidazol-2-yl)propyl]quinoxaline-6-carboxamide], at hNAMPT protein, the IC50 was 100 to 500 nM and the inhibition at 1 µM was determined as 85%. The inhibition at 1.667 µM in the assay with PC3 cells was 2%.
